The results in this text go back to patent US7776922B2, “Substituted [(phenylethanoyl)amino]benzamides” (Bayer Schering Pharma Aktiengesellschaft, priority 2004, dated 2010).

This assay has as its target T1, human IL8B receptor (Homo sapiens, UniProt P25025).
T1 construct: expressed in transfected cells; host or cells: CHO cells with mitochondrially localized aequorin, co-transfected with G-alpha-16
T1 sequence (P25025 1-360): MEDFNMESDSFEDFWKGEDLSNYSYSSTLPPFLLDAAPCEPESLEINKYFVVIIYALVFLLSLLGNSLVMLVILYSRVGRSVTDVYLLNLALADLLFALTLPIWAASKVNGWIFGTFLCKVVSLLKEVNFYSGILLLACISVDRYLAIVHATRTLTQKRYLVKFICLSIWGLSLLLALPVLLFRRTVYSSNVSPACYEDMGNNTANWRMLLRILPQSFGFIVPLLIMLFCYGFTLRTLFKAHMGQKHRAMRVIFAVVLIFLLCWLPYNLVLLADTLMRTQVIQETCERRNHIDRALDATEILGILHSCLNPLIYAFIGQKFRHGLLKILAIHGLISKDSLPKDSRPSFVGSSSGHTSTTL
As to the kind of experiment: Functional reporter assay for IL8B receptor antagonists (aequorin Ca2+ bioluminescence in transfected CHO cells). The assay is classed as cell-based. The conditions noted are these: CHO cells with mitochondrially localized aequorin, human IL8B receptor and G-alpha-16; inhibition of IL8-induced Ca2+ transient. An excerpt:
Functional Reporter Assay for High Throughput Screening of IL8B Receptor Antagonists
CHO cells with mitochondrially localized aequorin are stably transfected with the human IL8B receptor and the G-alpha-16 protein. Activation of the IL8B receptor with IL8 or an endogenous P2Y receptor with ATP leads to Ca^2+ release. This intracellular Ca^2+ transient can be detected by bioluminescence with mitochondrially localized aequorin. IL8-induced Ca^2+ transients are inhibited by IL8B receptor antagonists.
2000 cells in 25 μl of complete medium with 10% FCS per well of a 384-well multititer plate are incubated at 37° C. and 5% CO2 for 24 h. After removal of the medium, 30 μl of an 11.8 μM coelenterazine solution in 2 mM Ca-Tyrode are added, and the cells are incubated at 37° C. in 5% CO2 for a further 4 hours. 10 μl of test substance in 2 mM Ca-Tyrode/0.1% BSA are added, and the cells are incubated at room temperature for 5 minutes. The IL8B receptor is activated by adding 25 μl of a 0.78-2.6 nM IL8 solution in 2 mM Ca-Tyrode/0.1% BSA, or the endogenous P2Y receptor is activated by adding 25 μl of a 7.8-26 μM ATP solution in 2 mM Ca-Tyrode. The bioluminescence is recorded at the same time. IC50 values are calculated from dose-response plots using the Marquardt-Levenberg fit (Table A).

As usually defined, the IC50 is the point on the concentration scale where inhibition reaches its midpoint. The compound `CCC(C(=O)Nc1ccc(-c2cc3ccccc3s2)c(C(N)=O)c1)c1ccccc1` (single isomer, unassigned) [Example 1-2, 2-(1-Benzothien-2-yl)-5-[(2-phenylbutanoyl)amino]benzamide] returned an IC50 of 0.1 µM.

Compound `CCC(C(=O)Nc1ccc(-c2ccc3sccc3c2)c(C(N)=O)c1)c1ccccc1` (single isomer, unassigned) [Example 39-2, 2-(1-Benzothien-5-yl)-5-[(2-phenylbutanoyl)amino]benzamide] came in with an IC50 of 0.064 µM.

Compound `CCOc1ccc2cc(-c3ccc(NC(=O)C(CC)c4ccccc4)cc3C(N)=O)ccc2c1` (stereo not shown) [Example 2, 2-(6-Ethoxy-2-naphthyl)-5-[(2-phenylbutanoyl)amino]benzamide] showed an IC50 of 0.2 µM.

Turning to `CCC(C(=O)Nc1ccc(-c2cc3ccccc3s2)c(C(N)=O)c1)c1nccs1` (stereo not shown) [Example 26, 2-(1-Benzothien-2-yl)-5-{[2-(1,3-thiazol-2-yl)butanoyl]amino}benzamide], the IC50 came to 0.082 µM.

In turn, `CCC(C(=O)Nc1ccc(-c2ccc(-c3ccccc3)cc2)c(C(N)=O)c1)c1cccs1` (stereo not shown) [Example 29, 4-{[2-(2-Thienyl)butanoyl]amino}-1,1′:4′,1″-terphenyl-2-carboxamide] registered an IC50 of 0.092 µM.

`CCC(C(=O)Nc1ccc(-c2cc3ccccc3s2)c(C(N)=O)c1)c1cccc(F)c1` (stereo not shown) [Example 30, 2-(1-Benzothien-2-yl)-5-{[2-(3-fluorophenyl)butanoyl]amino}benzamide] returned an IC50 of 0.077 µM.

`CCC(C(=O)Nc1ccc(-c2cc3ccccc3s2)c(C(N)=O)c1)c1ccc2c(c1)OCCO2` (stereo not shown) [Example 35, 2-(1-Benzothien-2-yl)-5-{[2-(2,3-dihydro-1,4-benzodioxin-6-yl)butanoyl]amino}benzamide] gave an IC50 of 0.074 µM.
